# Counter-ions that a name gives are not always drawn.
# Target: ROCK2 (Homo sapiens, UniProt O75116)
# Assay: ROCK2 kinase inhibition assay (LABCHIP 3000 Reader, FITC peptide substrate);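 note: rho kinase reaction read by separating phosphorylated from unphosphorylated peptide on chip, with inhibition of kinase activity computed per concentration across a dose-response series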
# Settings: not given
# Chain of ROCK2 (O75116 whole entry, species assumed): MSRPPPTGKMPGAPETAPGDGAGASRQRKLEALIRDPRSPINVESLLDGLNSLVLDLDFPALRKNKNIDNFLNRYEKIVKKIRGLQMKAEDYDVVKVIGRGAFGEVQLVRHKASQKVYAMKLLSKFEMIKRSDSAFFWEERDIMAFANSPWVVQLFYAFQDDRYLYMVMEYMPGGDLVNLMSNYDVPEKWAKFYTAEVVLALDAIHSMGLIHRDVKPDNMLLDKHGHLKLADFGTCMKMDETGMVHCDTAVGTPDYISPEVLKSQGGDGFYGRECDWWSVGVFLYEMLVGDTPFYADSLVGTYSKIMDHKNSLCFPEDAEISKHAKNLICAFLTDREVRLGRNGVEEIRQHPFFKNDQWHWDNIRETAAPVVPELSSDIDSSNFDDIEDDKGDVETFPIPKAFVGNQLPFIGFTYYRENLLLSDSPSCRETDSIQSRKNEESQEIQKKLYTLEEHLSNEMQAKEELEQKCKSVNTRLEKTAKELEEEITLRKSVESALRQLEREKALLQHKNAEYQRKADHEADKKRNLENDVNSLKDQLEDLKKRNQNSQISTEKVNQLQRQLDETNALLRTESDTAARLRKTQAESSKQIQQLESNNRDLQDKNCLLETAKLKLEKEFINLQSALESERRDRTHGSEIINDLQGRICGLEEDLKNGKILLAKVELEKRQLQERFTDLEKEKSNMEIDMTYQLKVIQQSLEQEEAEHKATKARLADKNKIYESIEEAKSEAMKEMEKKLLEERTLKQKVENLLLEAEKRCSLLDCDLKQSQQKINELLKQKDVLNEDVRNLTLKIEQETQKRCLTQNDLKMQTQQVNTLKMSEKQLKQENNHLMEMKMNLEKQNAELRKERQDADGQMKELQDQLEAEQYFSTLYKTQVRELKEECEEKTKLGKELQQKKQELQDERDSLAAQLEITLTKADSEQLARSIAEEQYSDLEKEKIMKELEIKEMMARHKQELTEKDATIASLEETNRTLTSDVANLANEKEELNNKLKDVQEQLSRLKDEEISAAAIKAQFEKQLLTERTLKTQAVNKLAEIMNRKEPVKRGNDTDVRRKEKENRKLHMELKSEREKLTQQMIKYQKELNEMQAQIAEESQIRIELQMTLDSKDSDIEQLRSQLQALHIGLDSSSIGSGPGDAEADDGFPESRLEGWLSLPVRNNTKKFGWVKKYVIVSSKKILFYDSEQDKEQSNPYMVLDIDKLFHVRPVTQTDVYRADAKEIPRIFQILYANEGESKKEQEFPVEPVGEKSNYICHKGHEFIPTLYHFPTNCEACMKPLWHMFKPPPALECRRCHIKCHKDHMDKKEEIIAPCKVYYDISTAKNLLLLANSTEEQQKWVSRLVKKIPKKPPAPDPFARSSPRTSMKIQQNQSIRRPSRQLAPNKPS
row,IC50,Compound
1,50 to 250 nM,"CC(C)(O)COc1ccc2c(C(=O)N[C@H]3CC4(C3)C[C@H](Oc3ncccc3C(N)=O)C4)cnn2c1N1CCCCC1=O (atropisomer, axis not shown; (aR)) [Example 69, N-((aR)-6-((3-carbamoylpyridin-2-yl)oxy)spiro[3.3]heptan-2-yl)-6-(2-hydroxy-2-methylpropoxy)-7-(2-oxopiperidin-1-yl)pyrazolo[1,5-a]pyridine-3-carboxamide, trifluoroacetate]"
2,5 to 50 nM,"[H][C@]1(Oc2cc(-c3cnn(C)c3)ccc2C(N)=O)C[C@@]2(C[C@H](NC(=O)c3cnn4cc(OCC(C)(C)O)ccc34)C2)C1 (single isomer, unassigned) [Example 276]"
3,50 to 250 nM,"Cc1c(C(=O)NC2CC3(C2)CC(Oc2ccccc2C(N)=O)C3)cnn1-c1ccccc1 (stereo not shown) [Example 1, N-(6-(2-carbamoylphenoxy)spiro[3.3]heptan-2-yl)-5-methyl-1-phenyl-1H-pyrazole-4-carboxamide]"
4,50 to 250 nM,"Cn1nc(C(=O)NC2CC3(C2)CC(Oc2ccccc2C(N)=O)C3)c2ccccc21 (stereo not shown) [Example 2, N-(6-(2-carbamoylphenoxy)spiro[3.3]heptan-2-yl)-1-methyl-1H-indazole-3-carboxamide]"
5,5 to 50 nM,"CC(C)(O)COc1ccc2c(C(=O)NC3CC4(C3)CC(Oc3ccccc3C(N)=O)C4)cnn2c1 (stereo not shown) [Example 3, N-(6-(2-carbamoylphenoxy)spiro[3.3]heptan-2-yl)-6-(2-hydroxy-2-methylpropoxy)pyrazolo[1,5-a]pyridine-3-carboxamide]"
6,5 to 50 nM,"NC(=O)c1ccccc1OC1CC2(CC(NC(=O)c3cnn4cc(OC5CCOC5)ccc34)C2)C1 (stereo not shown) [Example 4, N-(6-(2-carbamoylphenoxy)spiro[3.3]heptan-2-yl)-6-((tetrahydrofuran-3-yl)oxy)pyrazolo[1,5-a]pyridine-3-carboxamide]"
7,50 to 250 nM,"COc1cc(C(=O)NC2CC3(C2)CC(Oc2ccccc2C(N)=O)C3)ccc1-c1cn[nH]c1 (stereo not shown) [Example 5, N-(6-(2-carbamoylphenoxy)spiro[3.3]heptan-2-yl)-3-methoxy-4-(1H-pyrazol-4-yl)benzamide]"
8,< 5 nM,"CC(C)(O)COc1ccc2c(C(=O)NC3CC4(C3)CC(Oc3ncccc3C(N)=O)C4)cnn2c1 (stereo not shown) [Example 6, N-(6-((3-carbamoylpyridin-2-yl)oxy)spiro[3.3]heptan-2-yl)-6-(2-hydroxy-2-methylpropoxy)pyrazolo[1,5-a]pyridine-3-carboxamide]"
9,250 to 2500 nM,"CC(C)(O)COc1ccc2c(C(=O)NC3CC4(C3)CC(Oc3nccnc3C(N)=O)C4)cnn2c1 (stereo not shown) [Example 7, N-(6-((3-carbamoylpyrazin-2-yl)oxy)spiro[3.3]heptan-2-yl)-6-(2-hydroxy-2-methylpropoxy)pyrazolo[1,5-a]pyridine-3-carboxamide]"
10,50 to 250 nM,"CC(C)(O)COc1ccc2c(C(=O)NC3CC4(C3)CC(Oc3ncncc3C(N)=O)C4)cnn2c1 (stereo not shown) [Example 8, N-(6-((5-carbamoylpyrimidin-4-yl)oxy)spiro[3.3]heptan-2-yl)-6-(2-hydroxy-2-methylpropoxy)pyrazolo[1,5-a]pyridine-3-carboxamide]"
11,5 to 50 nM,"NC(=O)c1cccnc1OC1CC2(CC(NC(=O)c3cnn4cc(OC(CF)CF)ccc34)C2)C1 (stereo not shown) [Example 9, N-(6-((3-carbamoylpyridin-2-yl)oxy)spiro[3.3]heptan-2-yl)-6-((1,3-difluoropropan-2-yl)oxy)pyrazolo[1,5-a]pyridine-3-carboxamide]"
12,5 to 50 nM,"NC(=O)c1cccnc1OC1CC2(CC(NC(=O)c3cnn4cc(OCCC(F)(F)F)ccc34)C2)C1 (stereo not shown) [Example 10, N-(6-((3-carbamoylpyridin-2-yl)oxy)spiro[3.3]heptan-2-yl)-6-(3,3,3-trifluoropropoxy)pyrazolo[1,5-a]pyridine-3-carboxamide]"
13,5 to 50 nM,"NC(=O)c1cccnc1OC1CC2(CC(NC(=O)c3cnn4cc(OC5CCOCC5)ccc34)C2)C1 (stereo not shown) [Example 11, N-(6-((3-carbamoylpyridin-2-yl)oxy)spiro[3.3]heptan-2-yl)-6-((tetrahydro-2H-pyran-4-yl)oxy)pyrazolo[1,5-a]pyridine-3-carboxamide]"
14,50 to 250 nM,"NC(=O)c1cccnc1OC1CC2(CC(NC(=O)N3CCc4ccccc43)C2)C1 (stereo not shown) [Example 12, N-(6-((3-carbamoylpyridin-2-yl)oxy)spiro[3.3]heptan-2-yl)indoline-1-carboxamide]"
15,50 to 250 nM,"N#Cc1ccc2c(c1)CN(C(=O)NC1CC3(C1)CC(Oc1ncccc1C(N)=O)C3)C2 (stereo not shown) [Example 13, N-(6-((3-carbamoylpyridin-2-yl)oxy)spiro[3.3]heptan-2-yl)-5-cyanoisoindoline-2-carboxamide]"
16,250 to 2500 nM,"NC(=O)c1ccccc1OC1CC2(CC(NC(=O)OCc3ccccc3)C2)C1 [Example 14, benzyl ((aR)-6-(2-carbamoylphenoxy)spiro[3.3]heptan-2-yl)carbamate]"
17,< 5 nM,"[H][C@]1(Oc2ccccc2C(N)=O)C[C@@]2(C[C@H](NC(=O)c3cnn4c(C5CC5)c(OCC(C)(C)O)ccc34)C2)C1 (stereo partly drawn) [Example 15, N-((aR)-6-(2-carbamoylphenoxy)spiro[3.3]heptan-2-yl)-7-cyclopropyl-6-(2-hydroxy-2-methylpropoxy)pyrazolo[1,5-a]pyridine-3-carboxamide]"
18,< 5 nM,"[H][C@]1(Oc2ccccc2C(N)=O)C[C@@]2(C[C@H](NC(=O)c3cnn4cc(OCC(C)(C)O)ccc34)C2)C1 (stereo partly drawn) [Example 16, N-((aR)-6-(2-carbamoylphenoxy)spiro[3.3]heptan-2-yl)-6-(2-hydroxy-2-methylpropoxy)pyrazolo[1,5-a]pyridine-3-carboxamide]"
19,50 to 250 nM,"COc1ccc2c(c1)CCN2C(=O)NC1CC2(C1)CC(Oc1ncccc1C(N)=O)C2 [Example 17, N-((aR)-6-((3-carbamoylpyridin-2-yl)oxy)spiro[3.3]heptan-2-yl)-5-methoxyindoline-1-carboxamide]"
20,< 5 nM,"NC(=O)c1ccccc1O[C@H]1CC2(C[C@H](NC(=O)c3cnc4cc(OCCC(F)(F)F)ccn34)C2)C1 (stereo partly drawn) [Example 18, N-[(aR)-6-(2-carbamoylphenoxy)spiro[3.3]heptan-2-yl]-7-(3,3,3-trifluoropropoxy)imidazo [1,2-a]pyridine-3-carboxamdie]"

# Same assay, conditions: read-out: ROCK2 Activity (ROCK2 IC50); 5 μM ATP, 1.5 μM peptide substrate, pH 7.5
row,Compound,IC50
1,2-(((aR)-6-(1- (pyridin-2-yl)-5- (trifluoromethyl)- 1H-pyrazole-4- carboxamido) spiro[3.3]heptan-2- yl)oxy) nicotinamide [Example 129],250 to 2500 nM
2,"2-(((aR)-6-(3-(2- methylthiazol-4- yl)benzamido)spiro [3.3]heptan-2- yl)oxy)nicotinamide, trifluoroacetate [Example 133]",5 to 50 nM
3,2-(((aR)-6-(3-cyano- 5-(1-methyl- 1H-pyrazol-4- yl)benzamido) spiro[3.3]heptan-2- yl)oxy)nicotinamide [Example 195],< 5 nM
4,"2-((aR)-6- (1-methyl-3- (trifluoromethyl)- 1H-pyrazole- 5-carboxamido) spiro[3.3]heptan- 2-yl)oxy) nicotinamide, trifluoroacetate [Example 86]",50 to 250 nM
5,"2-((aR)-6- (1-phenyl-1H- pyrazole-4- carboxamido) spiro[3.3]- heptan-2-yl)oxy) nicotinamide, trifluoroacetate [Example 73]",5 to 50 nM

# Source: US10829501B2 (BRISTOL-MYERS SQUIBB COMPANY, priority 2016, dated 2020)
